Data on 2 compounds can be found in patent US7947854B2, “Bis-cationic compounds and use thereof” (The University of Sydney, priority 2003, dated 2011).

Several values for one entry are separate records, joined by “and”; a condition that tells them apart may be missing. Equal entries are not always repeated. Where two headings read alike, the source gives them in different places.

Assay [1] has as its system Staphylococcus aureus 25923. In words: In vitro antibacterial activity, NCCLS M7-A6. The format is cell-based. The protocol:
(§1) Two bis-cationic compounds were tested for antibacterial activity. The assay used was that published by the National Committee for Clinical Laboratory Standards. 2003. Methods for Dilution Antimicrobial Susceptibility Tests for Bacteria That Grow Aerobically: Approved Standard—Sixth Edition. NCCLS document M7-A6. Villanova, Pa., USA.

In assay [2] the test system is Streptococcus pneumonia 49619. Description: In vitro antibacterial activity, NCCLS M7-A6. In kind it is cell-based. To be noted: Streptococcus pneumoniae. The protocol: as §1
Assay [3] relates to Pseudomonas ariginosa 122. Description: In vitro antibacterial activity, NCCLS M7-A6. The format is cell-based. How it is done: as §1
In the next assay the test system is Escherichia coli 25922. Description: In vitro antibacterial activity, NCCLS M7-A6. The format is cell-based. How it is done:
as §1

Assay [4] concerns VRE (Vancomycin resistant Enterococcus). In words: In vitro antibacterial activity, NCCLS M7-A6. In kind it is cell-based. The protocol:
as §1

Assay [5] concerns MRSA (methicillin resistant S. aureus). In words: In vitro antibacterial activity, NCCLS M7-A6. To be noted: Staphylococcus aureus, read-out: MIC MRSA (methicillin resistant S. aureus). The format is cell-based. How it is done: as §1
Assay [6] has as its system Cryptococcus neoformans ATCC 90112. In words: In vitro antifungal activity, yeasts, NCCLS M27-A. The format is cell-based. To be noted: Cryptococcus neoformans, ATCC90112; Table 9. The text has this:
(§2) The assay used for yeasts (Candida; Cryptococcus) is that of the National Committee for Clinical Laboratory Standards. 1997. Reference Method for Broth Dilution Antifungal Susceptibility Testing of Yeasts: Approved Standard. NCCLS document M27-A.Villanova, Pa., USA as published in Ghannoum, M. A., A. S. Ibrahim, Y. Fu, M. C. Shafiq, J. E Edwards, Jr. and R. S. Criddle. 1992. Susceptibility testing of Cryptococcus neoformans: A microdilution technique. J. Clin. Microbiol. 30:2881-2886.

Assay [7] deals with Candida albicans ATCC 10231. Description: In vitro antifungal activity, yeasts, NCCLS M27-A. In kind it is cell-based. To be noted: Candida albicans, ATCC10231; Table 9.
Text: as §2

For another assay, the system named is T. mentagrophytes. In words: Susceptibility of dermatophytes, broth microdilution NCCLS M38-P. In kind it is cell-based. To be noted: 100% growth inhibition, 28° C.; for MIC: Trichophyton mentagrophytes. How it is done: Isolates were tested using the method described in the National Committee for Clinical Laboratory Standards (NCCLS) document M38-P for filamentous fungi, with dermatophyte specific modifications described by Fernández-Torres et al, Current topics in Medical Mycology, 14-19 Feb. 1999.
Five dermatophyte isolates were, namely; T. rubrum, T. mentagrophytes, T. tonsurans, M. canis and M. gypseum, all of which produce lipases and some, phospholipase. These isolates were tested by the broth microdilution method according to NCCLS document M38-P, for activity against selected antifungal agents. In addition, ten randomly selected isolates of T. tonsurans were also tested. All isolates were maintained on SDA at 28° C. Candida parapsilosis (ATCC 20019) was used as the reference control is organism.
The microdilution plates used were a single lot of RPMI 1640 basal medium (JRH bioScience Inc. Lenexa, Kans., USA) with L-glutamine and without sodium bicarbonate, buffered to pH 7.0, at 25° C., with 0.165 M (MOPS) morpholinepropanesulfonic acid (Sigma).
Powdered drugs were dissolved in 100% dimethyl sulfoxide (DMSO), at concentrations 100 times higher than the final test concentration. All compounds were prepared in 100% (DMSO). For ITRA and TRB, two-fold drug dilutions were prepared in 100% DMSO at 100 times the final concentration, followed by further dilution 1:50 in RPMI medium, to yield 2× the final strength required for the test.
Fungal cultures were subcultured onto Potato Dextrose Agar and grown at 28° C. for 7-10 days. Fungal suspensions were covered with 5 ml of distilled water, and then colonies were scraped off with cotton tipped swabs. The resulting mixture of conidia and hyphae elements was withdrawn, transferred to a sterile tube and then vortexed with glass beads. After the particles settled, the upper homogeneous suspension was collected and its density adjusted by a densitometer to a 0.5 McFarland standard at the wavelength of 530 nm (80-85% transmittance). These stock suspensions were then diluted 1:50 with RPMI medium to obtain final working inoculum concentration ranging from 0.3×10^4 to 9×10^4 CFU/ml. Inoculum quantification was performed by plating 100 μl of the 1:1000 dilution of the adjusted inoculum on SDA plates, incubated at 28° C., and after 7 days of incubation, the colonies were counted.
Testing was based on NCCLS M38-P document for testing filamentous moulds. Testing was carried out in sterile 96-well flat bottomed microtitre plate. Columns 1 and 3 to 12 were filled with 100 μl of RPMI medium, leaving column 2 unfilled. Columns 1, 2 and 3 were filled with 100 μl of 2× drug concentration. Serial dilutions were then made by transferring 100 μl from column 3 to each column up to column 11, and 100 μl from column 11 was discarded. Column 12 served as drug free growth control. Finally, 100 μl of inoculum suspension was added to all wells except column 1, which acted as sterility control (Columns 1 and 12 served as sterility and growth control respectively). Plates were incubated at 28° C. for 7 days, and read at 3 days and 7 days of incubation. All testing was performed in duplicate, on three separate occasions.
Growth in microtitre trays were read by visual inspection by using an illuminated-reversed mirror. Growth in each well was compared with the “growth control” drug free well. The MIC end point for all the drugs was chosen to be the first well with 100% growth inhibition (i.e. the lowest drug concentration inhibiting growth).

Assay [8] relates to C. albicans (ATCC10231) phospholipases. Description: Inhibition of C. albicans phospholipases. In kind it is biochemical.
Assay [9] has as its system two strains of C. neoformans and one strain of Candida albicans. Description: Standardised serial dilution sensitivity test, results stated over all strains. In kind it is cell-based. How it is done: Antifungal susceptibility testing. The antifingal activity of the compounds was measured by a standard microdilution method. […] The fungal strains tested included Cryptococcus neoformans H99, Cryptococcus neoformans ATCC 90112 and Candida albicans ATCC 10231. All tests were performed in duplicate.

Usually MIC stands for the least concentration at which growth counts as inhibited. For `CCCC[N+](CCCC)(CCCC)CCCCCCCCCCCC[N+](CCCC)(CCCC)CCCC` [1,12-Bis-(tributylammonium)dodecane dichloride], the MIC in assay [1] is 3.3 µg/mL and 5.5 µM; in assay [2], 0.73 µg/mL and 1.2 µM; in assay [3], 48 µg/mL and 80 µM; against Escherichia coli 25922, 13.4 µg/mL and 22 µM; in [4], 1.6 µg/mL and 2.7 µM; in assay [5] it was 3.3 µg/mL and 5.5 µM. In addition, the minimal inhibitory concentration (MIC) in [6] was 1.3 µg/mL and 2.2 µM; in [7] it was 2.6 µg/mL and 4.4 µM.
Regarding `CCCC[N+](CCCC)(CCCC)CCCCCCCCCCCC[N+](CCCC)(CCCC)CCCC` [Compound 3, 1,12-bis(tributylammonium)do-decane dibromide], the “MIC Range, T. mentagrophyte” value in the assay with T. mentagrophytes came out at 3.8 mg/L. The minimal inhibitory concentration (MIC) with T. mentagrophytes (read-out: MIC GM, T. mentagrophyte) was determined as 3.8 mg/L; with T. mentagrophytes (read-out: MIC Mean, T. mentagrophyte), 3.8 mg/L. Also, the “inhibition of C. albicans (ATCC10231) phospholipases, in words” value in assay [8] is recorded as “inhibits”. Besides, the “antifungal / fungicidal activity, in words” value in assay [9] was “fungicidal activity”.
